Measurements: the NIST ThermoML archive (doi:10.1021/je060269j)
Where “and” joins values, the source holds several entries; their conditions need not be identical. Identical values can stand only once. ± gives the expanded uncertainty stated by the source.

Conditions: Liquid, Flow apparatus with low residence time

CC(=O)OC(C)(C)C [1,1-dimethylethyl ethanoate]
Conditions | Critical pressure [kPa] | Critical temperature [K] | vapor or sublimation pressure [kPa]
– | 3040 ± 120 | 541.2 ± 4 | –
472.7 K | – | – | 1053 ± 42
495 K | – | – | 1527 ± 61
514.5 K | – | – | 2074 ± 83
533.7 K | – | – | 2722 ± 110
535.7 K | – | – | 2802 ± 110
535.9 K | – | – | 2801 ± 110
536.4 K | – | – | 2835 ± 110
537.3 K | – | – | 2868 ± 120
537.7 K | – | – | 2903 ± 120
538.6 K | – | – | 2949 ± 120

CC(O)CCO (stereo not given) [1,3-butanediol]
Conditions | Critical pressure [kPa] | Critical temperature [K] | vapor or sublimation pressure [kPa]
– | 5180 ± 210 | 692.4 ± 4 | –
481.4 K | – | – | 100.2 ± 4.1
508.1 K | – | – | 209.6 ± 8.5
537.8 K | – | – | 418.5 ± 17
576 K | – | – | 898.4 ± 36
614.7 K | – | – | 1719 ± 69
646.7 K | – | – | 2774 ± 110
662.5 K | – | – | 3462 ± 140
676.7 K | – | – | 4158 ± 170
688.2 K | – | – | 4840 ± 190

c1cocn1 [1,3-oxazole]
Conditions | Critical pressure [kPa] | Critical temperature [K] | vapor or sublimation pressure [kPa]
– | 6770 ± 270 | 550.8 ± 4 | –
479 K | – | – | 2424 ± 97
494.6 K | – | – | 3116 ± 120
514.9 K | – | – | 4146 ± 170
535.5 K | – | – | 5523 ± 220
547.4 K | – | – | 6492 ± 260

CC(C)c1ccc(C(C)C)cc1 [1,4-diisopropylbenzene]
Conditions | Critical pressure [kPa] | Critical temperature [K] | vapor or sublimation pressure
– | 2360 ± 90 | 676.2 ± 4 | –
518 K | – | – | 217.1 ± 8.8 kPa
552.6 K | – | – | 416.3 ± 17 kPa
596.8 K | – | – | 837.8 ± 34 kPa
648.1 K | – | – | 1669 ± 67 kPa and 1667 ± 67 kPa
666.2 K | – | – | 2078 ± 83 kPa
672.3 K | – | – | 2258 ± 90 kPa
675.9 K | – | – | 2325 ± 93 kPa

CC1(C)CO1 [2,2-dimethyloxirane]
Conditions | Critical pressure [kPa] | Critical temperature [K] | vapor or sublimation pressure [kPa]
– | 4350 ± 170 | 499.9 ± 4 | –
320.1 K | – | – | 87.08 ± 3.6
339.1 K | – | – | 165.1 ± 6.7
365.6 K | – | – | 348.9 ± 14
393.2 K | – | – | 678.4 ± 27
428.2 K | – | – | 1381 ± 56
469.4 K | – | – | 2760 ± 110
496.4 K | – | – | 4141 ± 170
499.2 K | – | – | 4306 ± 170

CSSC [2,3-dithiabutane]
Conditions | Critical pressure [kPa] | Critical temperature [K] | vapor or sublimation pressure [kPa]
– | 5070 ± 200 | 607.8 ± 4 | –
466.3 K | – | – | 690 ± 28
500.8 K | – | – | 1244 ± 50
533.1 K | – | – | 2002 ± 80
561 K | – | – | 2897 ± 120
591.4 K | – | – | 4205 ± 170
604.8 K | – | – | 4902 ± 200
607.2 K | – | – | 5037 ± 200

NCCOCCO [2-(2-aminoethoxy)ethanol]
Conditions | Critical pressure [kPa] | Critical temperature [K] | vapor or sublimation pressure [kPa]
– | 4800 ± 190 | 721.2 ± 4 | –
500.9 K | – | – | 117.3 ± 4.8
526.9 K | – | – | 225.2 ± 9.1
564.9 K | – | – | 496.6 ± 20
594.2 K | – | – | 842.6 ± 34
625.9 K | – | – | 1395 ± 56
653.9 K | – | – | 2085 ± 84
685 K | – | – | 3130 ± 120
716.5 K | – | – | 4521 ± 180
719.4 K | – | – | 4729 ± 190

OCCCOCCCO [4-oxa-1,7-heptanediol]
Conditions | Critical pressure [kPa] | Critical temperature [K] | vapor or sublimation pressure [kPa]
– | 3380 ± 140 | 705.2 ± 4 | –
505 K | – | – | 100.7 ± 4.1
534.3 K | – | – | 208.2 ± 8.4
564.2 K | – | – | 395.8 ± 16
607.2 K | – | – | 854.3 ± 34
649.8 K | – | – | 1631 ± 65
689.9 K | – | – | 2779 ± 110
699.1 K | – | – | 3123 ± 120
703.4 K | – | – | 3296 ± 130

CCCCSSCCCC [5,6-dithiadecane]
Conditions | vapor or sublimation pressure [kPa]
504.2 K | 90.32 ± 3.7
535.7 K | 180.3 ± 7.3
571.7 K | 349.6 ± 14
614.9 K | 695.7 ± 28

O=CN1CCOCC1 [N-formylmorpholine]
Conditions | Critical pressure [kPa] | Critical temperature [K] | vapor or sublimation pressure [kPa]
– | 5080 ± 310 | 779.3 ± 4 | –
507.5 K | – | – | 91.7 ± 9.9
538 K | – | – | 174.8 ± 19
573.2 K | – | – | 343.4 ± 37
614.6 K | – | – | 688.1 ± 74
663.6 K | – | – | 1379 ± 150
664.7 K | – | – | 1382 ± 150
723.7 K | – | – | 2761 ± 300
745.2 K | – | – | 3447 ± 370
762.7 K | – | – | 4137 ± 440
775.2 K | – | – | 4826 ± 520
777.7 K | – | – | 4999 ± 540

CN(CCO)CCO [N-methyldiethanolamine]
Conditions | Critical pressure [kPa] | Critical temperature [K] | vapor or sublimation pressure [kPa]
– | 4160 ± 170 | 741.9 ± 4 | –
519.7 K | – | – | 98.59 ± 4
543.3 K | – | – | 175.1 ± 7.1
574.8 K | – | – | 346.1 ± 14
617.1 K | – | – | 743.9 ± 30
657.1 K | – | – | 1389 ± 56
707.5 K | – | – | 2785 ± 110
728.1 K | – | – | 3475 ± 140
735.4 K | – | – | 3799 ± 150
738.4 K | – | – | 3985 ± 160

C=CC(=O)OCCCC [butyl 2-propenoate]
Conditions | Critical pressure [kPa] | Critical temperature [K] | vapor or sublimation pressure [kPa]
– | 2840 ± 110 | 601.2 ± 4 | –
441.9 K | – | – | 178.6 ± 7.2
471.9 K | – | – | 351.6 ± 14
506.5 K | – | – | 689.5 ± 28
549.3 K | – | – | 1380 ± 55
599.1 K | – | – | 2761 ± 110

CCOC(=O)C(=O)OCC [diethyl ethanedioate]
Conditions | Critical pressure [kPa] | Critical temperature [K] | vapor or sublimation pressure [kPa]
– | 3060 ± 120 | 645.8 ± 4 | –
454.6 K | – | – | 90.67 ± 3.7
481.8 K | – | – | 182.4 ± 7.4
512.9 K | – | – | 359.9 ± 14
547.3 K | – | – | 690.9 ± 28
590.1 K | – | – | 1381 ± 55
638.8 K | – | – | 2761 ± 110
642.5 K | – | – | 2934 ± 120
644.4 K | – | – | 3013 ± 120

CC(=O)OC(C)OC(C)=O [ethylidene diethanoate]
Conditions | Critical pressure [kPa] | Critical temperature [K] | vapor or sublimation pressure [kPa]
– | 2970 ± 120 | 618.2 ± 4 | –
461.6 K | – | – | 177.6 ± 7.2
486.4 K | – | – | 314.3 ± 13
514.2 K | – | – | 555.5 ± 22
541.2 K | – | – | 902.2 ± 36
571.5 K | – | – | 1457 ± 59
601.1 K | – | – | 2286 ± 92
608.2 K | – | – | 2561 ± 100
612 K | – | – | 2697 ± 110

O=C=Nc1ccccc1 [phenyl isocyanate]
Conditions | Critical pressure [kPa] | Critical temperature [K] | vapor or sublimation pressure [kPa]
– | 4000 ± 400 | 656.9 ± 10 | –
479.7 K | – | – | 278.9 ± 11
553.2 K | – | – | 1038 ± 42
588.3 K | – | – | 1724 ± 69
618.6 K | – | – | 2551 ± 100
653 K | – | – | 3795 ± 150
653.1 K | – | – | 3793 ± 150

O=S1(=O)CCCC1 [sulfolane]
Conditions | vapor or sublimation pressure [kPa]
560.2 K | 103.6 ± 4.2
594.4 K | 203.9 ± 8.2
626.3 K | 350.2 ± 14
656.3 K | 556.8 ± 22
685.1 K | 829.2 ± 33
713.2 K | 1181 ± 47
742 K | 1665 ± 67
773.4 K | 2363 ± 95
802.7 K | 3185 ± 130
829 K | 4144 ± 170

O=C1CCCO1 [γ-butyrolactone]
Conditions | Critical pressure [kPa] | Critical temperature [K] | vapor or sublimation pressure [kPa]
– | 5100 ± 200 | 732.5 ± 4 | –
474.9 K | – | – | 93.29 ± 3.8
501.8 K | – | – | 174.7 ± 7
532.5 K | – | – | 325.8 ± 13
562.6 K | – | – | 558.5 ± 22
600 K | – | – | 1005 ± 40
639 K | – | – | 1723 ± 69
673.8 K | – | – | 2643 ± 110
696.7 K | – | – | 3454 ± 140
713.8 K | – | – | 4147 ± 170
726.8 K | – | – | 4779 ± 190
730.8 K | – | – | 5013 ± 200
